According to patent US11945812B2, “Annulated 2-amino-3-cyano thiophenes and derivatives for the treatment of cancer” (Boehringer Ingelheim International GmbH, priority 2020, dated 2024):
pIC50: −log10 of the molar value. Read-outs that look alike come from different tables or passages of the source.

Key:
[1] = biological target: T1, KRAS G12C::SOS1 protein-protein interaction (Homo sapiens, UniProt P01116, C118S/C51S/C80L/G12C); experiment: KRAS::SOS1 AlphaScreen binding assay; settings: KRAS G12C::SOS1 AlphaScreen
T1 construct: His6 (N); host or cells: E. coli
Excerpt: KRAS::SOS1 AlphaScreen Binding Assay
Reagents: • GST-tagged SOS1 (564_1049_GST_TEV_ECO) produced in-house • GST-TEV-SOS1 (564-1049) is purchased from Viva Biotech Ltd. • The expression construct of KRAS G12C (amino acids 1-169 of reference sequence P01116-2 (uniprot), with additional mutations: C51S, C80L, and C118S) containing a C-terminal avi-tag was obtained by gene synthesis (GeneArt, Thermo Fisher) in donor vector (pDONR-221) and transferred by recombinant cloning into pDEST17 vector bearing an N-terminal His6-tag. The protein was expressed in E. coli and the purified protein was biotinylated with the E. coli biotin ligase (BirA) before usage. • GDP (Sigma Cat No G7127) • AlphaLISA Glutathione Acceptor Beads (PerkinElmer, Cat No AL109) • AlphaScreen Streptavidin Donor Beads (PerkinElmer Cat No 6760002) • Assay plates: Proxiplate-384 PLUS, white (PerkinElmer, Cat No 6008289)
Assay Buffer: • 1×PBS • 0.1% BSA • 0.05% Tween 20
7.5 nM (final assay concentration) KRAS G12C, 10 μM (final assay concentration) GDP and 5 nM (final assay concentration) GST-SOS1 are mixed in assay buffer prior to use and kept at room temperature.
AlphaLISA Glutathione Acceptor Beads and AlphaScreen Streptavidin Donor Beads are mixed in assay buffer at a concentration of 10 μg/mL (final assay concentration) each prior to use and kept at room temperature.
Compounds are diluted to a final start concentration of 100 μM and are tested in duplicate. Assay-ready plates (ARPs) are generated using an Access Labcyte Workstation with a Labcyte Echo 550 or 555 accoustic dispenser. For compound a start concentration of 100 μM, 150 nL of compound solution is transferred per well in 11 concentrations in duplicate with serial 1:5 dilutions.
The assay is run using a fully automated robotic system in a darkened room below 100 Lux. 10 μL of KRAS::SOS1 GDP mix is added into columns 1-24 to the 150 nL of compound solution (final dilution in the assay 1:100, final DMSO concentration 1%).
After 30 minutes incubation time 5 μL of bead mix is added into columns 1-23. Plates are kept at room temperature in a darkened incubator. After further 60 minutes incubation, the signal is measured using a PerkinElmer Envision HTS Multilabel Reader using the AlphaScreen specifications from PerkinElmer. Each plate contains the following controls: • diluted DMSO+KRAS::SOS1 GDP mix+bead mix • diluted DMSO+KRAS::SOS1 GDP mix
IC50 values are calculated and analyzed using a 4 parametric logistic model.
Tables of example compounds disclosed herein contain IC50 values determined using the above assay.

[2] = tested on: ERK phosphorylation in NCI-H358_Cas9_SOS2; experiment: ERK phosphorylation assay 2 (AlphaLISA SureFire Ultra p-ERK1/2), SOS2 knock-out; assay type: cell-based; settings: Homo sapiens, NCI-H358; assay 2 (marked with *); read-out: IC50 H358 pERK
Excerpt: ERK Phosphorylation Assay
Materials Used for the Assay;

[3] = Plasma protein binding (equilibrium dialysis), serum 10% FCS in PBS; assay type: in vitro ADME; settings: bovine, 10% FCS in PBS (serum), read-out: PPB 10% FCS fu
Description: (§1) Plasma Protein Binding (PPB)
(§2) Binding of test compound to plasma was determined using equilibrium dialysis (ED) and quantitative mass spectrometry interfaced with liquid chromatography (LC-MS). In brief, ED was performed with dialysis devices consisting of two chambers separated by a semipermeable membrane with a molecular weight cut-off of 5-10 kg/mol. One chamber was filled with commercially sourced plasma (mouse and human plasma, respectively) or serum (10% FCS in PBS) containing 1-10 μmol/L test compound and the other chamber was filled with phosphate-buffer saline (PBS) with or without dextran. The dialysis chamber was incubated for 3-5 hours at 37° C. After incubation, protein was precipitated from aliquots of each chamber and the concentration of test compound in the supernatant of the plasma-containing compartment (cplasma) and of the buffer-containing compartment (Cbuffer) was determined by LC-MS. The fraction of unbound test compound (not bound to plasma) (fu) was calculated according to the following equation: […]

[4] = Plasma protein binding (equilibrium dialysis), human plasma; assay type: in vitro ADME; settings: read-out: PPB human fu
Description: as §1, §2

[5] = Plasma protein binding (equilibrium dialysis), mouse plasma; assay type: in vitro ADME; settings: read-out: PPB mouse fu
Description: as §1, §2

[6] = biological target: Ba/F3 cells bearing a KRAS G12C mutation (Homo sapiens, UniProt P01116, G12C, cells depend on it); experiment: Ba/F3 cell model proliferation assay (AlamarBlue, 72 h); assay type: cell-based
Description: Ba/F3 Cell Model Generation and Proliferation Assay
Plasmids containing KRASG12 mutants were obtained from GeneScript. To generate KRASG12-dependent Ba/F3 models, Ba/F3 cells were transduced with retroviruses containing vectors that harbor KRASG12 isoforms. Platinum-E cells (Cell Biolabs) were used for retrovirus packaging. Retrovirus was added to Ba/F3 cells. To ensure infection, 4 μg/mL polybrene was added and cells were spinfected. […] Cells with an infection efficiency of 10% to 20% were further cultivated and puromycin selection with 1 μg/mL was initiated. As a control, parental Ba/F3 cells were used to show selection status. Selection was considered successful when parental Ba/F3 cells cultures died. To evaluate the transforming potential of KRASG12 mutations, the growth medium was no longer supplemented with IL-3. Ba/F3 cells harboring the empty vector were used as a control. Approximately ten days before conducting the experiments, puromycin was left out.
All treatments were performed in technical duplicates. The assay is run using a fully automated robotic system. Treated cells were incubated for 72 h at 37° C. with 5% CO2. AlamarBlue™ (ThermoFisher), a viability stain, was added and fluorescence measured in the PerkinElmer Envision HTS Multilabel Reader.

[7] = Ba/F3 KRAS G12C cells, 72 h, 10% FCS, uncorrected, read-out: IC50 Ba/F3 KRASG12C
[8] = corrected by plasma protein binding in 10% FCS (fraction unbound), read-out: IC50 Ba/F3 KRASG12C (corrected)

Ba/F3 cells bearing a KRAS G12C mutation, sequence (P01116 whole entry G12C): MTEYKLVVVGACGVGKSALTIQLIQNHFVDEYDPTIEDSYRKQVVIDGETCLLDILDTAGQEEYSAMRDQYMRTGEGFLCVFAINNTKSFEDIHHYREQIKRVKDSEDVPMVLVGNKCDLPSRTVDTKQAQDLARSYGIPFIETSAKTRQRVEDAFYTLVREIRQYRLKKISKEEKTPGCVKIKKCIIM
T1 sequence (P01116 1-169 isoform P01116-2 G12C/C51S/C80L/C118S): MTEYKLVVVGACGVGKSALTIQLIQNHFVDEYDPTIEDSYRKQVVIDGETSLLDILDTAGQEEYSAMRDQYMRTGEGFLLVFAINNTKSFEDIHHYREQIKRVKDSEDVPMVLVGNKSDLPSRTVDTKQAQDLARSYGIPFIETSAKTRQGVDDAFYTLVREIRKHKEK

Row | SMILES | pIC50 [1] | pIC50 [2] | fraction unbound [3] | fraction unbound [4] | fraction unbound [5] | GI50 [6, 7] [nM] | GI50 [6, 8] [nM]
1 | C=CC(=O)N1[C@H](C)CN(c2cc(O[C@@H](C)[C@@H]3CCCN3C)nc(-c3cc([C@@]4(C)CCCc5sc(N)c(C#N)c54)on3)n2)C[C@@H]1C [Ib-3] | 8.70 | 8.39 | 0.078 | 0.018 | 0.004 | 3.9 | 0.3
2 | C=CC(=O)N1CCC(Oc2cc(O[C@@H](C)[C@@H]3CCCN3C)nc(-c3cc([C@@]4(C)CCCc5sc(N)c(C#N)c54)on3)n2)CC1 [Ib-7] | 8.82 | 9.22 | 0.127 | 0.018 | 0.007 | 0.2 | 0.03
3 | C=CC(=O)N1CCC(Oc2cc(N3CCN(C)C[C@@H]3C)nc(-c3cc(C4(C)CCCc5sc(N)c(C#N)c54)on3)n2)CC1 (stereo partly drawn) [Ib-8] | 7.89 | 7.90 | 0.198 | 0.014 | 0.001 | 13.5 | 2.67
4 | C=CC(=O)N1[C@@H](C)CN(c2nc(-c3cc([C@@]4(C)CCCc5sc(N)c(C#N)c54)on3)nc(O[C@@H](C)[C@@H]3CCCN3C)c2Cl)C[C@@H]1C [Ib-9] | 8.40 | 7.95 | 0.026 | 0.002 | 0.001 | 2.9 | 0.08
5 | C=C(F)C(=O)N1[C@@H](C)CN(c2nc(-c3cc([C@@]4(C)CCCc5sc(N)c(C#N)c54)on3)nc(O[C@@H](C)[C@@H]3CCCN3C)c2Cl)C[C@@H]1C [Ib-12] | 7.13 | 6.08 | 0.016 | < 0.00052 | < 0.0004 | 67.9 | 1.09
6 | C=C(F)C(=O)N1CCC(Oc2cc(N3CCN(C)C[C@@H]3C)nc(-c3cc(C4(C)CCCc5sc(N)c(C#N)c54)on3)n2)CC1 (stereo partly drawn) [Ib-13] | 6.56 | 5.94 | 0.114 | 0.005 | < 0.0005 | 350 | 39.9
7 | C=CC(=O)N1CCC(Oc2cc(O[C@@H](C)[C@@H]3CCCN3C)nc(-c3cc([C@@]4(C)CCCc5sc(N)c(C#N)c54)no3)n2)CC1 [Ic-6] | 8.80 | 9.30 | 0.093 |  | < 0.001 | 0.7 | 0.07
8 | C=C(F)C(=O)N1CCN(c2nc(OC[C@@H]3CCCN3C)nc3c2CCN(c2cccc4cccc(Cl)c24)C3)C[C@@H]1CC#N [adagrasib, reference compound] |  |  | 0.43 | 0.014 | 0.004 |  | 

The next lines start with the values.

Row | pIC50 [1] | pIC50 [2] | fraction unbound [3] | fraction unbound [4] | fraction unbound [5] | GI50 [6, 7] [nM] | GI50 [6, 8] [nM] | SMILES
9 | 8.70 | 8.51 |  |  |  |  |  | C=CC(=O)N1CCN(c2cc(-c3cc(C4(C)CCCc5sc(N)c(C#N)c54)on3)nc(O[C@@H](C)[C@@H]3CCCN3C)n2)CC1 (stereo partly drawn) [Ib-2]
10 | 7.77 | 7.49 | 0.185 | 0.041 | 0.011 | 72.4 | 13.4 | COC/C=C/C(=O)N1CCN(c2cc(O[C@@H](C)[C@@H]3CCCN3C)nc(-c3cc(C4(C)CCCc5sc(N)c(C#N)c54)on3)n2)CC1 (stereo partly drawn) [Ib-15]
11 | 8.77 | 8.96 |  |  |  | < 1.3 |  | C=CC(=O)N1CCN(c2cc(-c3cc([C@@]4(C)CCCc5sc(N)c(C#N)c54)sn3)nc(O[C@@H](C)[C@@H]3CCCN3C)n2)CC1 [Id-3]
12 | 8.30 | 7.69 |  |  |  | 5.4 |  | C=C(F)C(=O)N1CCN(c2cc(O[C@@H](C)[C@@H]3CCCN3C)nc(-c3cc(C4(C)CCCc5sc(N)c(C#N)c54)sn3)n2)CC1 (stereo partly drawn) [Id-7]
13 | 7.68 | 7.23 | 0.336 |  | 0.003 | 44 | 14.8 | COC/C=C/C(=O)N1CCN(c2cc(O[C@@H](C)[C@@H]3CCCN3C)nc(-c3cc([C@@]4(C)CCCc5sc(N)c(C#N)c54)sn3)n2)CC12CC2 [Id-9]
